Here are results for twelve molecules from US7820804B2, “Fluoroglycoside derivatives of pyrazoles, medicaments containing these compounds, and the use thereof” (Sanofi-Aventia Deutschland GmbH, priority 2004, dated 2010).

This experiment deals with T1, human sodium-dependent glucose transporter 1 (SGLT1, SLC5A1) (Homo sapiens, UniProt P13866).
T1 construct: Bases 11 to 2005 correspond to the complete coding region of human SGLT1; expressed in transfected cells
T1 sequence (P13866 1-664): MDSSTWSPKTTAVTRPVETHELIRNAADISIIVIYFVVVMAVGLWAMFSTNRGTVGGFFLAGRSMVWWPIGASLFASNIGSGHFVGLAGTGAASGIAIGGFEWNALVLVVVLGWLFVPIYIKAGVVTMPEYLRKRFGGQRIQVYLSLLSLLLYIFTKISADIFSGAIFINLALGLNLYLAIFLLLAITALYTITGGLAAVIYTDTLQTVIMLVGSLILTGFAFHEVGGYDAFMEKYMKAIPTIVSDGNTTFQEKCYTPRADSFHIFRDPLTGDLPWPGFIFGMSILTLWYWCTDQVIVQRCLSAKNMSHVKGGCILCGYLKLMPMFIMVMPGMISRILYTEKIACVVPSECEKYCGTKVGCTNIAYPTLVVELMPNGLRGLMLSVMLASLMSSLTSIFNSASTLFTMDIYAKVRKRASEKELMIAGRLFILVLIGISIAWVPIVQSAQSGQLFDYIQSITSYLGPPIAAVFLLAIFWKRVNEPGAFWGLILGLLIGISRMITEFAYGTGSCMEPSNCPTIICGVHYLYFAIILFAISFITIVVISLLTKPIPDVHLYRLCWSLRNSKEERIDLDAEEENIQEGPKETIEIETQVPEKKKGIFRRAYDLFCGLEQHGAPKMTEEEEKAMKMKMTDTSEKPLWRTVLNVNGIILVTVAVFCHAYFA
Put plainly: Inhibition of methyl α-D-glucopyranoside (α-MDG) uptake in CHO-TRex-hSGLT1 cells. The class given is cell-based. Particulars: in vitro uptake of methyl α-D-glucopyranoside, 50 μM α-MDG, 30 min at room temperature. From the text: A further method for testing the activity of the compounds is the inhibition of the transport activity of the human sodium-dependent glucose transporter 1 (SGLT1, SLC5A1) in vitro:
1. Cloning of an Expression Vector for Human SGLT1
The cDNA for human SGLT1 was introduced into the pcDNA4/TO vector (Invitrogen) by standard methods of molecular biology as described in Sambrook et al. (Sambrook et al., Molecular Cloning, A Laboratory Manual, 2nd Edition). […] Bases 11 to 2005 correspond to the complete coding region of human SGLT1.
2. Preparation of a Recombinant Cell Line with Inducible Expression of Human SGLT1
The expression vector for human SGLT1 was introduced into CHO-TRex cells (Invitrogen) by means of FuGene6 lipofection (Roche). To select single cell clones, 600 μg/mI Zeocin (Invitrogen) was added to the cell culture medium (Nutrient Mixture F-12 (Ham), (Invitrogen) supplemented with 10% fetal calf serum (BD Biosciences), 10 μg/ml blasticidin S (CN Biosciences), 100 units/ml penicillin, 100 units/ml streptomycin). The functionality of the single cell clones resulting from the selection was tested via their uptake activity for radiolabeled methyl α-D-glucopyranoside. The cell clone with the greatest uptake activity for methyl α-D-glucopyranoside, referred to as CHO-TRex-hSGLT1 hereinafter, was selected for further experiment, and cultivation was continued in the presence of 600 μg/ml of zeocin.
3. Measurement of the Inhibitory Effect of Test Substances on the Uptake of Methyl […]-D-glucopyranoside ([…]-MDG)
CHO-TRex-hSGLT1 cells were seeded in a concentration of 50 000 cells per well in Cytostar-T scintillating 96-well plates (Amersham Biosciences) in cell culture medium and cultivated for 24 h. Expression of the recombinant human SGLT1 was induced by adding 1 pg/mI tetracyclin for a further 24 h. For α-MDG uptake experiments, the cells were washed with PBS and then starved (PBS supplemented with 10% fetal calf serum) at 37° C. for one hour. After a further washing step with transport assay buffer (140 mM sodium chloride, 2 mM potassium chloride, 1 mM magnesium chloride, 1 mM calcium chloride, 10 mM HEPES/Tris, pH 7.5), the cells were incubated either in the absence or presence of test substances varying in concentration at room temperature for 15 min. The test substances were diluted appropriately in transport assay buffer (40 μl/well) starting from a 10 mM stock solution in dimethyl sulfoxide.
The assay was then started by adding 10 μl of a mixture of radiolabeled methyl α-D-[U-^14C]glucopyranoside (Amersham) and unlabeled methyl α-D-glucopyranoside (Acros). The final concentration of methyl α-D-glucopyranoside in the assay was 50 μM. After an incubation time of 30 min at room temperature, the reaction was stopped by adding 50 µl/well of 10 mM methyl α-D-glucopyranoside in transport assay buffer (4° C.), and the radioactivity uptake by the cells was determined in a MicroBeta Scintillation Microplate Reader (Wallac). The half-maximum inhibitory effect of the test substances (IC50) was determined in the following way: • 1. Establishment of the value for 0% inhibition. This is the measurement in the absence of substance, measured in sodium-containing transport assay buffer. • 2. Establishment of the value for 100% inhibition. This is the measurement in the absence of substance, measured in sodium-free transport assay buffer (140 mM choline chloride, 2 mM potassium chloride, 1 mM magnesium chloride, 1 mM calcium chloride, 10mM HEPES/Tris, pH7.5). • 3. Calculation of the percentage inhibitions for the measurements carried out in the presence of various concentrations of test substance. It was then possible to ascertain therefrom the concentration of test substance which reduced the uptake of methyl α-D-glucopyranoside by 50% (IC50).
IC50 values of test substances (μM) [in vitro testing of the uptake of methyl α-D-glucopyranoside]
A word on the IC50: it is the concentration that gives 50% inhibition. A high value points to lower potency. In the case of `CC(C)c1[nH]nc(OC2OC(CO)C(F)C(O)C2O)c1Cc1ccc(CCC(=O)NC(C)(C)CO)cc1` (stereo not drawn) [Example 18], the midpoint of inhibition, the IC50, lay at 80 nM. This counts as double-digit nanomolar.
`CC(C)c1[nH]nc(OC2OC(CO)C(F)C(O)C2O)c1Cc1ccc(CCCC(=O)NCCCN)cc1` (stereo not drawn) [Example 22] showed an IC50 of 144 nM.
Under `CC(C)c1[nH]nc(OC2OC(CO)C(F)C(O)C2O)c1Cc1ccc(/C=C/CC(=O)NCCC(N)=O)cc1` (stereo not drawn) [Example 3] stands 43 nM; under `CC(C)c1[nH]nc(OC2OC(CO)C(F)C(O)C2O)c1Cc1ccc(CCCC(=O)NC(CO)(CO)CO)cc1` (stereo not drawn) [Example 21], 47 nM.
In turn, `CC(C)c1[nH]nc(OC2OC(CO)C(F)C(O)C2O)c1Cc1ccc(CCCC(=O)N2CCN(C)CC2)cc1` (stereo not drawn) [Example 12] yielded an IC50 of 139 nM.
The figure for `CC(C)c1[nH]nc(OC2OC(CO)C(F)C(O)C2O)c1Cc1ccc(CCCC(=O)N2CCCC2)cc1` (stereo not drawn) [Example 15] is 170 nM; for `CCCNC(=O)NCCCc1ccc(Cc2c(OC3OC(CO)C(F)C(O)C3O)n[nH]c2C)cc1` (stereo not drawn) [Example 31] it is 252 nM; for `Cc1[nH]nc(OC2OC(CO)C(F)C(O)C2O)c1Cc1ccc(CCCC(=O)NCCC(N)=O)cc1` (stereo not drawn) [Example 6] it is 133 nM.
The figure for `CC(C)c1[nH]nc(OC2OC(CO)C(F)C(O)C2O)c1Cc1ccc(CCCNC(=O)N2CCN(C)CC2)cc1` (stereo not drawn) [Example 36] is 43 nM; for `CC(C)c1[nH]nc(OC2OC(CO)C(F)C(O)C2O)c1Cc1ccc(CCCC(=O)N[C@@H]2O[C@H](CO)[C@@H](O)[C@H](O)[C@H]2O)cc1` (stereo partly drawn) [Example 24] it is 208 nM; for `CC(C)c1[nH]nc(OC2OC(CO)C(F)C(O)C2O)c1Cc1ccc(CCCC(=O)N[C@@H](CO)C(N)=O)cc1` (stereo partly drawn) [Example 9] it is 81 nM.
The figure for `CC(C)c1[nH]nc(O[C@@H]2O[C@H](CO)[C@@H](F)[C@H](O)[C@H]2O)c1Cc1ccc(C(=O)NCC(N)=O)cc1` [Example 33] is 70 nM.
